Measurements published in patent US12139461B1, “Piperidine compounds as PDE5 inhibitors” (KING SAUD UNIVERSITY, priority 2024, dated 2024).
Where “and” joins values, the source holds several entries; their conditions need not be identical. Equal values may be shown once.

How the values were obtained:
[1] = molecular target: Phosphodiesterase type 5 (PDE5) (Homo sapiens (Human), UniProt O76074); assay: In vitro phosphodiesterase type 5 (PDE5) inhibition assay; assay type: biochemical; settings: purified PDE5, IMAP FP assay
male rats = assay: Copulatory behavior testing; assay type: in vivo, rat; settings: 5 mg/kg oral; for mean intromission interval (MII): MII=EL/IF
Protocol: Sexually mature Wistar albino male and female rats weighing 150-180 g (10-14 weeks old) were used in our study. Males were trained for sexual behavior with estrus females, that is, two hours a day for one week, before the investigations. Females were brought into the estrous phase artificially by sequential injection of estradiol benzoate (Sigma) (25 μg/animal) and progesterone (Sigma) (250 μg/animal) subcutaneously, 48 and 4 hours before pairing, respectively. Only those sexually active animals were used subsequently in the study. Sexually active rats were isolated and housed in separate cages at room temperature (24±2° C.) on a reversed day/night cycle with a relative humidity of 50-55% during the experimental period. All sexual studies were performed in a calm laboratory condition under subdued light. For the toxicity study, adult Wistar albino male rats were used separately. Rats were obtained from the Experimental Animal Care Center, College of Pharmacy, King Saud University. Animals were fed with a standard pellet diet and provided water ad libitum. All experiments were performed per the protocols and recommendations of the NIH Guide for the Care and Use of Laboratory Animals and the legal requirements of King Saud University for investigations on humans and animals.
Based on a preliminary study to select the appropriate dose for the promising synthesized compounds, the compounds were administered separately to sexually experienced male rats by oral gavage at 5 mg/kg in a 0.5% sodium carboxymethyl cellulose (CMC) vehicle. […] All solutions were freshly prepared at a concentration that allowed the administration of 1 ml/kg.
After drug treatment, rats were housed separately in transparent cages for acclimation. Thirty minutes after drug treatment, a sexually receptive female rat with estrous phase was introduced in each cage for 30 min and the following parameters of the copulatory behavior were recorded: namely mount latency (ML; time from introduction of the female until the first mount with or without penile insertion, it measures the degree of arousal or sexual interest or libido of the male), mount frequency (MF; the number of mounts until ejaculation, it is a measure of the degree of the male's sexual interest or libido), intromission latency (IL; time from introduction of the female until the first intromission, it measures the degree of sexual excitement and erection), intromission frequency (IF; number of vaginal penetrations until ejaculation, it measures the degree of erection), ejaculation latency (EL; time from the first intromission until ejaculation, it determines the excellent organization of copulation in rats) and post-ejaculatory interval (PEI; time interval between an ejaculation and the following first mount, it measures the refractory period that comes after ejaculation). Latency values represent the number of seconds that elapses from the introduction of the female into the copulatory arena until the male executes the first mount, intromission or ejaculation. Frequency values represent the number of ejaculations, mounts or intromission recorded during the copulatory test.
Depending on these parameters, the following can be calculated: Copulatory efficiency (CE)=(IF/MF)×100 and mean intromission interval (MII)=EL/IF as previously described (Aydogan F. et al., J Ethnopharmacol 257 (2020) 112868; Besong E B. et al., Biochem Res Int 2018 (2018) 2869727, the contents of each of which are hereby incorporated by reference in their entirety). Experiments were repeated blindly three times using new fresh (unused) animals in each experiment.

[2] = tested on: sexually experienced male rats; assay: Penile erection index (noncontact erection test); assay type: in vivo, rat; settings: Rattus norvegicus, oral, linear regression of proportion of responding rats, read-out: effective dose ED50 (dose required to give 50% responding rats)
Protocol: The penile erection index is an established means of determining the erection promoting properties of a substance. Determination of penile erection in a noncontact position was calculated as reported previously (Haripriya V M. et al., Andrologia 51 (2019) e13180; Sharma V. et al., J Ethnopharmacol 143 (2012) 201-206, the contents of each of which are hereby incorporated by reference in their entirety). The sexually experienced male rats of all groups were given the treatment 30 minutes before experimentation. The number of animals for each dose was ten rats in each experiment. […] The results shown are the average of three separate experiments. Control animals were given 0.5% CMC as a vehicle.
The rats of each group were placed in the observation cages (five at a time) divided into half by two sheets of metal mesh, preventing contact but allowing auditory, visual and olfactory stimuli. After a 5-min adaptation period, the test was started by placing an estrus female on the other side of the cage. Penile erection was recorded when the rats bent down to lick their erect penis. Homosexual mounting was also counted when a male rat mounted another male rat performing pelvic thrusts with or without a penile erection. […] The effective dose ED50 (the dose required to give 50% responding rats) for examined compounds was calculated using linear regression analysis by GraphPad software with the proportion of responding rats as the input data and expressed as μmol/kg.

CC(C(=O)Nc1ccc(F)cc1)N1CCC(Cc2ccccc2)CC1 (centres unmarked) [Compound C17]
IC50 [1]: 279 ± 5.43 nM

COc1ccc(S(=O)(=O)N2CCC(c3ccccc3)CC2)c(OC)c1 [Compound C1, 1-((2,4-Dimethoxyphenyl)sulfonyl)-4-phenylpiperidine]
IC50 [1]: 106 ± 2.07 nM
melting point: 191 to 193 °C

COc1ccc(S(=O)(=O)N2CCC(Cc3ccccc3)CC2)cc1OC [Compound C20]
IC50 [1]: 63.3 nM
ML, IL, IF, MF and EL compared to untreated controls (male rats): not significantly different
ejaculation latency (EL) (male rats): prolonged
intromission frequency (IF) (male rats): 7.6
intromission latency (IL) (male rats): 229.1 s
mount frequency (MF) (male rats): 16.0
mount latency (ML) (male rats): 95.5 s
post-ejaculatory interval (PEI) (male rats): 401.8 s
copulatory efficiency (CE) (male rats; CE=(IF/MF)x100): did not alter
copulatory efficiency (CE) (male rats; CE=(IF/MF)x100, listed as C 20): 48.5%
mean intromission interval (MII) (male rats): did not alter
mean intromission interval (MII) (male rats; listed as C 20): 44.7
ejaculation latency (EL) (male rats; listed as C 20): 325.1 s

CC(C(=O)Nc1ccc(S(N)(=O)=O)cc1)N1CCC(Cc2ccccc2)CC1 (centres unmarked) [Compound C12, 2-(4-Benzylpiperidin-1-yl)-N-(4-sulfamoylphenyl)-2-methylacetamide]
IC50 [1]: 874 ± 17.1 nM

Cc1cc(C)c(S(=O)(=O)N2CCC(c3ccccc3)CC2)c(C)c1 [Compound C6, 1-(Mesitylsulfonyl)-4-phenylpiperidine]
IC50 [1]: 296 ± 5.77 nM
melting point: 157 to 159 °C

COc1cc(CNC(=O)CN2CCC(Cc3ccccc3)CC2)cc(OC)c1OC [Compound C34, 2-(4-Benzylpiperidin-1-yl)-N-(3,4,5-trimethoxybenzyl)acetamide]
IC50 [1]: 60.5 ± 1.18 nM

COc1ccccc1S(=O)(=O)N1CCC(Cc2ccccc2)CC1 [Compound C23, 4-Benzyl-1-((2-methoxyphenyl)sulfonyl)piperidine]
IC50 [1]: 207 ± 4.03 nM
melting point: 95 to 97 °C

COc1ccc(NC(=O)CN2CCC(Cc3ccccc3)CC2)cc1 [Compound C15, 2-(4-Benzylpiperidin-1-yl)-N-(4-methoxyphenyl)acetamide]
IC50 [1]: 184 ± 3.6 nM
melting point: 61 to 63 °C

NS(=O)(=O)c1ccc(NC(=O)CN2CCC(Cc3ccccc3)CC2)cc1 [Compound C13, 2-(4-Benzylpiperidin-1-yl)-N-(4-sulfamoylphenyl)acetamide]
IC50 [1]: 221 ± 4.32 nM

O=S(=O)(c1ccc(Cl)c(Cl)c1)N1CCC(Cc2ccccc2)CC1 [Compound C19, 4-Benzyl-1-((3,4-dichlorophenyl)sulfonyl)piperidine]
IC50 [1]: 102 ± 1.99 nM
melting point: 166 to 168 °C

Cc1ccc(S(=O)(=O)N2CCC(Cc3ccccc3)CC2)cc1 [Compound C28]
IC50 [1]: 56.5 nM
efficacy in improving copulatory behavior (male rats): more pronounced
ejaculation latency (EL) (male rats): 332.8 s
intromission frequency (IF) (male rats): 9.1
intromission latency (IL) (male rats): 195.5 s
mount frequency (MF) (male rats): 17.5
mount latency (ML) (male rats): 94.6 s
post-ejaculatory interval (PEI) (male rats): 393.3 s
copulatory efficiency (CE) (male rats; CE=(IF/MF)x100): 52.3%
mean intromission interval (MII) (male rats): 36.6

O=C(CN1CCC(Cc2ccccc2)CC1)Nc1ccccc1 [Compound C30]
IC50 [1]: 59 nM
ML, IL, IF, MF and EL compared to untreated controls (male rats): not significantly different
ejaculation latency (EL) (male rats): 324.6 s
intromission frequency (IF) (male rats): 6.8
intromission latency (IL) (male rats): Weak but significant reductions
mount frequency (MF) (male rats): 14.8
mount latency (ML) (male rats): 95.5 s
post-ejaculatory interval (PEI) (male rats): 411.8 s
copulatory efficiency (CE) (male rats; CE=(IF/MF)x100): did not alter
copulatory efficiency (CE) (male rats; CE=(IF/MF)x100, listed as C 30): 46.8%
mean intromission interval (MII) (male rats): did not alter
mean intromission interval (MII) (male rats; listed as C 30): 49.2
intromission latency (IL) (male rats; listed as C 30): 215.3 s

CCCc1nn(C)c2c(=O)[nH]c(-c3cc(S(=O)(=O)N4CCN(C)CC4)ccc3OCC)nc12 [sildenafil, reference compound]
ejaculation latency (EL) (male rats): 426.6 s
intromission frequency (IF) (male rats): 17.8
intromission latency (IL) (male rats): 135.1 s
mount frequency (MF) (male rats): 26.6
mount latency (ML) (male rats): 68.5 s
post-ejaculatory interval (PEI) (male rats): 294.5 s
mean intromission interval (MII) (male rats): 24.3
ED50 [2]: 8.52 µmol/kg

CC(C)c1cc(C(C)C)c(S(=O)(=O)N2CCC(Cc3ccccc3)CC2)c(C(C)C)c1 [Compound C27, 1-((2,4,6-Tri-isopropylphenyl)sulfonyl)-4-Benzylpiperidine]
IC50 [1]: 143 ± 2.78 nM

O=S(=O)(c1ccccc1)N1CCC(Cc2ccccc2)CC1 [Compound C18]
IC50 [1]: 112 ± 2.19 nM

O=S(=O)(c1ccc(Cl)cc1)N1CCC(c2ccccc2)CC1 [Compound C5]
IC50 [1]: 675 ± 13.2 nM

Cc1ccc(S(=O)(=O)N2CCC(c3ccccc3)CC2)cc1 [Compound C10]
IC50 [1]: 133 ± 2.59 nM

O=C(CN1CCC(Cc2ccccc2)CC1)NCc1ccccc1 [Compound C31]
IC50 [1]: 74.9 ± 1.46 nM

COc1ccc(S(=O)(=O)N2CCC(Cc3ccccc3)CC2)c(OC)c1 [Compound C24, 1-((2,4-Dimethoxyphenyl)sulfonyl)-4-Benzylpiperidine]
IC50 [1]: 56.3 nM and 56.4 nM
efficacy in improving copulatory behavior (male rats): more pronounced
ejaculation latency (EL) (male rats): 377.6 s
intromission frequency (IF) (male rats): 9.3
intromission latency (IL) (male rats): 193.8 s
mount frequency (MF) (male rats): 17.3
mount latency (ML) (male rats): 85.0 s
post-ejaculatory interval (PEI) (male rats): 370.0 s
copulatory efficiency (CE) (male rats; CE=(IF/MF)x100): 54.0%
mean intromission interval (MII) (male rats): 41.2

O=S(=O)(c1ccc(Cl)cc1)N1CCC(Cc2ccccc2)CC1 [Compound C29]
IC50 [1]: 250 ± 4.88 nM

CC(C)c1cc(C(C)C)c(S(=O)(=O)N2CCC(c3ccccc3)CC2)c(C(C)C)c1 [Compound C7, 1-((2,4,6-tri-isiopropylphenyl)sulfonyl)-4-phenylpiperidine]
IC50 [1]: 520 ± 10.1 nM

O=S(=O)(c1ccccc1)N1CCC(c2ccccc2)CC1 [Compound C8]
IC50 [1]: 54.2 ± 1.06 nM

O=C(CN1CCC(Cc2ccccc2)CC1)Nc1ccc(F)cc1 [Compound C32]
IC50 [1]: 203 ± 3.95 nM
